The results in this text go back to US8354433B2, “Anti-inflammatory agents as virostatic compounds” (4SC AG, priority 2009, dated 2013).

As usually defined, the inhibition is how much of the control response was suppressed. For orientation: pEC50 means the negative decadic logarithm of the EC50, by convention in mol/L. The low end stands for a high EC50, the high end for a low EC50. In general, pIC50 refers to the IC50 on a negative log10 scale, so that one unit is a factor of ten.

pEC50, pIC50: −log10 of the molar value. Like-named read-outs stand apart in the source and are kept apart here.

Data set [1] relates to HCV subgenomic replicon of genotype 1b. Nature of the data set: microbe, parasite or virus in culture. Conditions: Hepatitis C virus, 24 h, read-out: Antiviral Activity EC50/nM. The class given is cell-based.
Another data set relates to HIV-191US005. Briefly: Anti-HIV efficacy in fresh human PBMCs (RT activity and p24 ELISA). The class given is cell-based, HIV-1. Conditions: Human immunodeficiency virus 1, PBMC, 168 h; for EC50: read-out: EC50/nM; for EC90: read-out: EC90/nM.
Data set [2] deals with dihydroorotate dehydrogenase (DHODH) (Homo sapiens, UniProt Q02127). Briefly: DHODH inhibition, in vitro assay. The format is biochemical.
Chain of dihydroorotate dehydrogenase (DHODH) (Q02127 whole entry): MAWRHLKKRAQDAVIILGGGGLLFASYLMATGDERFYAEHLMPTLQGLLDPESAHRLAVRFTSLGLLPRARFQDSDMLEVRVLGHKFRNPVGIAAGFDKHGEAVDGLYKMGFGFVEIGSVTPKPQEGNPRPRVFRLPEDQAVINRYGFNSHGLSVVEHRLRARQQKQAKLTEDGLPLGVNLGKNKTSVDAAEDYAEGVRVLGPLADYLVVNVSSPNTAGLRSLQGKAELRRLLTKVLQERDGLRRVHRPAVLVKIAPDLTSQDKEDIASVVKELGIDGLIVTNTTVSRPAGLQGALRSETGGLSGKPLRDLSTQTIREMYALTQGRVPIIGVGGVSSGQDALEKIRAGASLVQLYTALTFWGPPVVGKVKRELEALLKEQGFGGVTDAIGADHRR
The subject of data set [3] is ET cell line (luc-ubi-neo/ET), Huh7. Briefly: CytoTox-1 cytotoxicity in ET cells. To be noted: 24 h, cell unit μM.
In the next data set the test system is human PBMCs. Nature of the data set: MTS cytotoxicity in human PBMCs. Conditions: seven days.
The test system of another data set is Influenza Virus (H7N7). Nature of the data set: microbe, parasite or virus in culture. The class given is cell-based, avian influenza virus (Fowl Plaque Virus. To be noted: unidentified influenza virus, H7N7, A549, 16 h; for inhibition at 30 µM: read-out: Antiviral Activity % Inhibition.
Where [4] appears, read: Table 2, read-out: DHODH IC50/nM.
[5] abbreviates: Table 8, read-out: DHODH IC50/nM.

As for `O=C(O)C1=C(C(=O)Nc2c(F)cc(-c3ccccc3Cl)cc2F)CSC1` [Compound 2, 4-(2′-Chloro-3,5-difluoro-biphenyl-4-ylcarbamoyl)-2,5-dihydro-thiophene-3-carboxylic acid], the EC50 in data set [1] is 680 nM; in the data set on HIV-191US005 (Endpoint RT, seven days) it was 920 nM; in the data set with HIV-191US005 (Endpoint p24, seven days), 1380 nM. In addition, the EC90 in the data set on HIV-191US005 (Endpoint RT, seven days) came to 2590 nM; in the data set with HIV-191US005 (Endpoint p24, seven days), 2770 nM. Also, the IC50 in data set [2] (DHODH IC50/nM, Table 1) is less than 20 nM; in data set [2] (setting [4]), less than 20 nM. Also, the TC50 in data set [3] is more than 100 µM. Also, in the data set with human PBMCs, the TC50/nM is given as more than 100000 nM.

For the compound `O=C(Nc1ccc(-c2ccccc2)cc1)Nc1ccccc1C(=O)O` [Compound 7, 2-(3-biphenyl-4-ylureido)benzoic acid], in the data set with HIV-191US005 (Endpoint RT, seven days), the EC50 is 50 nM and the EC90 is 210 nM. Besides, in the data set on HIV-191US005 (Endpoint p24, seven days), the EC50 was 60 nM and the EC90 came out at 230 nM. In data set [2] (DHODH IC50/nM, Table 1), the IC50 is less than 20 nM. In the data set with human PBMCs, the TC50/nM is listed as more than 100000 nM.

For the compound `COc1cccc(-c2c(F)c(F)c(NC(=O)c3occc3C(=O)O)c(F)c2F)c1` [Compound 8, 2-(2,3,5,6-tetrafluoro-3′-methoxybiphenyl-4-ylcarbamoyl)furan-3-carboxylic acid], in the data set on Influenza Virus (H7N7), the inhibition at 30 µM was more than 50%. For the same compound, the EC50 with HIV-191US005 (Endpoint RT, seven days) was found to be 760 nM; in the data set on HIV-191US005 (Endpoint p24, seven days) it was 840 nM. Besides, the EC90 with HIV-191US005 (Endpoint RT, seven days) is 2700 nM; in the data set on HIV-191US005 (Endpoint p24, seven days), 2970 nM. Also, the IC50 in data set [2] (DHODH IC50/nM, Table 1) was less than 20 nM; in data set [2] (setting [5]), less than 20 nM. Also, the TC50/nM with human PBMCs was more than 100000 nM.

Regarding `CCOc1cccc(-c2cc(F)c(NC(=O)c3cscc3C(=O)O)c(F)c2)c1` [Compound 9, 4-(3′-ethoxy-3,5-difluorobiphenyl-4-ylcarbamoyl)thiophene-3-carboxylic acid], in the data set with Influenza Virus (H7N7), the inhibition at 30 µM was more than 80%. In addition, in data set [2] (setting [5]), the IC50 is less than 20 nM.

Consider `COc1cccc(-c2c(F)c(F)c(NC(=O)C3=C(C(=O)O)CCC3)c(F)c2F)c1` [Compound 10, 2-(2,3,5,6-tetrafluoro-3′-methoxybiphenyl-4-ylcarbamoyl)cyclopent-1-enecarboxylic acid], for which, in the data set on Influenza Virus (H7N7), the inhibition at 30 µM is more than 80%.

`COc1ccccc1-c1c(F)c(F)c(NC(=O)C2=C(C(=O)O)CCC2)c(F)c1F` [Compound 11, 2-(2,3,5,6-tetrafluoro-2′-methoxybiphenyl-4-ylcarbamoyl)cyclopent-1-enecarboxylic acid]: in the data set with Influenza Virus (H7N7), the pEC50 is approximately 5.52 and the inhibition at 30 µM is more than 90%. Also, the IC50 in data set [2] (setting [5]) was less than 20 nM.

For `O=C(O)C1=C(C(=O)Nc2c(F)cc(-c3cccc(OC(F)(F)F)c3)cc2F)CCC1` [Compound 12, 2-(3,5-difluoro-3′-(trifluoromethoxy)biphenyl-4-ylcarbamoyl)cyclopent-1-enecarboxylic acid], the inhibition at 30 µM in the data set with Influenza Virus (H7N7) was more than 80%. The IC50 in data set [2] (setting [5]) lay within 20 to 200 nM.

As to `O=C(O)C1=C(C(=O)Nc2c(F)c(F)c(-c3cccc(OC(F)(F)F)c3)c(F)c2F)C(O)CC1` (stereo not shown) [Compound 13, 3-hydroxy-2-(2,3,5,6-tetrafluoro-3′-(trifluoromethoxy)biphenyl-4-ylcarbamoyl)cyclopent-1-enecarboxylic acid], the inhibition at 30 µM with Influenza Virus (H7N7) was more than 50%. Besides, the IC50 in data set [2] (setting [5]) was less than 20 nM.

`COc1ccc(-c2ccc(NC(=O)C3=C(C(=O)O)CCC3)cc2Cl)cc1` [Compound 14, 2-(2-chloro-4′-methoxybiphenyl-4-ylcarbamoyl)cyclopent-1-enecarboxylic acid]: the inhibition at 30 µM with Influenza Virus (H7N7) was more than 50%. For the same compound, the EC50 in the data set on HIV-191US005 (Endpoint RT, seven days) came to 5240 nM; with HIV-191US005 (Endpoint p24, seven days) it was 5180 nM. The EC90 was 12200 nM with HIV-191US005 (Endpoint RT, seven days) and 16600 nM with HIV-191US005 (Endpoint p24, seven days). Moreover, the IC50 fell in the range of 20 to 200 nM in data set [2] (DHODH IC50/nM, Table 1) and 20 to 200 nM in data set [2] (setting [5]). In the data set on human PBMCs, the TC50/nM was more than 100000 nM.

Consider `O=C(O)c1cscc1C(=O)Nc1c(F)cc(-c2cccc(OC(F)(F)F)c2)cc1F` [Compound 15, 4-(3,5-difluoro-3′-(trifluoromethoxy)biphenyl-4-ylcarbamoyl)thiophene-3-carboxylic acid], for which the inhibition at 30 µM in the data set on Influenza Virus (H7N7) is more than 80%. For the same compound, the IC50 in data set [2] (setting [5]) was less than 20 nM.

On to `O=C(O)C1=C(C(=O)Nc2ccc(OCc3c(F)cccc3Cl)c(F)c2)CCC1` [Compound 21, 2-[4-(2-Chloro-6-fluoro-benzyloxy)-3-fluoro-phenylcarbamoyl]-cyclopent-1-enecarboxylic acid], for which, in data set [1], the EC50 came to 1740 nM. For the same compound, the IC50 in data set [2] (setting [4]) fell in the range of 20 to 200 nM. The compound also returned a TC50 in data set [3] of more than 30 µM.

Take `O=C(O)C1=C(C(=O)Nc2cc(Cl)c(OCc3c(F)cccc3Cl)c(Cl)c2)CCC1` [Compound 22, 2-[3,5-Dichloro-4-(2-chloro-6-fluoro-benzyloxy)-phenylcarbamoyl]-cyclopent-1-enecarboxylic acid]: the EC50 in data set [1] was 1760 nM. Moreover, the IC50 in data set [2] (setting [4]) was in the range of 20 to 200 nM. For the same compound, the TC50 in data set [3] is more than 30 µM.

On to `CN(C)c1ccc(-c2ccc(NC(=O)C3=C(C(=O)O)CCC3)cc2Cl)cc1` [Compound 23, 2-(2-Chloro-4′-dimethylamino-biphenyl-4-ylcarbamoyl)-cyclopent-1-enecarboxylic acid], for which, in the data set with HIV-191US005 (Endpoint RT, seven days), the EC50 is 1070 nM and the EC90 turned out to be 3480 nM. Also, in the data set on HIV-191US005 (Endpoint p24, seven days), the EC50 came out at 1000 nM and the EC90 was determined as 3720 nM. Moreover, the IC50 in data set [2] (DHODH IC50/nM, Table 1) is 20 to 200 nM. In the data set on human PBMCs, this compound gave a TC50/nM of more than 100000 nM.

Turning to `COc1cccc(-c2ccc(NC(=O)c3ccsc3C(=O)O)c(F)c2)c1` [Compound 24, 3-(3-Fluoro-3′-methoxy-biphenyl-4-ylcarbamoyl)-thiophene-2-carboxylic acid], in the data set on HIV-191US005 (Endpoint RT, seven days), the EC50 was found to be 3970 nM and the EC90 worked out at 9070 nM. For the same compound, in the data set with HIV-191US005 (Endpoint p24, seven days), the EC50 amounted to 4540 nM and the EC90 was 12300 nM. In data set [2], the negative-log IC50 (pIC50) was 6.70 to 7.70. In addition, the TC50/nM in the data set with human PBMCs came to 55800 nM.

On to `O=C(O)C1=C(C(=O)Nc2c(F)c(F)c(-c3cccc(OC(F)(F)F)c3)c(F)c2F)CSC1` [Compound 25, 4-(2,3,5,6-Tetrafluoro-3′-trifluoromethoxy-biphenyl-4-ylcarbamoyl)-2,5-dihydro-thiophene-3-carboxylic acid], for which the EC50 stood at 1560 nM in the data set on HIV-191US005 (Endpoint RT, seven days) and 1180 nM with HIV-191US005 (Endpoint p24, seven days). The EC90 with HIV-191US005 (Endpoint RT, seven days) is 3020 nM; in the data set with HIV-191US005 (Endpoint p24, seven days) it was 3160 nM. For the same compound, the IC50 in data set [2] (DHODH IC50/nM, Table 1) is less than 20 nM. In the data set on human PBMCs, this compound had a TC50/nM of more than 100000 nM.
